US20160022724A1, “METHODS FOR TREATING PARAMYXOVIRUSES” (Alios BioPharma, Inc., priority 2014, published 2016)

Key:
[1] = tested on: RSV-A Memphis 37b challenge virus; assay: human RSV challenge model (viral load in nasal washes by plaque assay and PCR); assay type: in vivo
Description: Healthy adults received one of the following dosing regimens or placebo over 5 days using the human RSV challenge model.
Subjects were given an intranasal inoculation of RSV-A Memphis 37b challenge virus. Administration of compound (A), or a pharmaceutically acceptable salt thereof, began approximately 12 hours after confirmation of RSV infection as determined by the presence of RSV RNA in nasopharyngeal washes. The test compound was administered as an oral-liquid suspension, wherein the drug vehicle was methyl cellulose and sterile water. The placebo was the drug vehicle without the test compound. Second dosages were started 12 hours after administration of the first dosage, and the remaining second dosages were provided in approximate 12 hour intervals. Nasal washes were collected twice daily approximately 36 to 48 hours after RSV inoculation until Day 12. Viral load was detected and quantified from the aliquots of the nasal wash samples using tissue infectivity plaque assays and PCR. (See DeVincenzo, J. P., et al., Am. J. Respir. Crit. Care. Med. (2010) 182(10):1305-1314) Subjects returned for two follow-up visits on Day 16 (±2 days) and Day 28 (±2 days) post-challenge inoculation.

[2] = half life of the triphosphate compound (B); conditions: triphosphate formed inside the cell
Excerpt: The compounds (A) and (B), or a pharmaceutically acceptable salt of the foregoing, are described in U.S. Publication Nos. 2013/0165400 and 2015/0051167 and International Publication Nos. WO 2013/142525 and WO 2013/142525, all of which are hereby incorporated by reference in their entireties. Those skilled in the art understand that once compound (A), or a pharmaceutically acceptable salt thereof, is absorbed, the groups attached to 3′ and 5′ positions can be easily removed by esterases, proteases and/or other enzymes. Once inside the cell, the triphosphate (compound (B), or a pharmaceutically acceptable salt thereof) can be formed via metabolization by cellular enzymes.

discontinuation of treatment during the study ([1]; healthy adults, 5 days dosing) | half-life [2] | SMILES | RSV RNA ([1]; Day 12, all treated subjects) | RSV RNA ([1]; Day 16 follow-up) | RSV RNA ([1]; Day 28 follow-up) | RSV viral load compared to the placebo ([1]; all regimens (750/150 mg, 750/500 mg, 375 mg), oral, 5 days, healthy adults, nasal wash, FIG. 1) | clinically significant laboratory abnormalities ([1]; healthy adults, 5 days dosing) | reduction of plaque forming units equivalents (PFUe/mL) ([1]; subjects who received 750 mg on Day 1, within the first 24 hours)
no subject discontinued treatment |  | CC(C)C(=O)OC[C@@]1(CCl)O[C@@H](n2ccc(N)nc2=O)[C@H](F)[C@@H]1OC(=O)C(C)C [Compound (A)] | undetectable | undetectable | undetectable | marked reduction in RSV viral load | no clinically significant laboratory abnormalities were observed | multi-log reduction
 | ~17.6 h | Nc1ccn([C@@H]2O[C@](CCl)(COP(=O)(O)OP(=O)(O)OP(=O)(O)O)[C@@H](O)[C@H]2F)c(=O)n1 [Compound (B)] |  |  |  |  |  | 
